The METLIN SMRT retention time set (Domingo-Almenara et al. 2019)

Experiment: gradient 5% acetonitrile 3 min, to 50% in 2 min, to 85% in 15 min, held 3 min, 100 µL/min
Settings: column: Zorbax Extend-C18 2.1 x 50 mm; eluents: water / acetonitrile, 0.1% formic acid
In short: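 Each retention time is based on an adduct peak selected computationally and verified by manual inspection. Measurements used HPLC–quadrupole time-of-flight mass spectrometry in positive and negative ionization mode on mixtures of ~100 pure standards. Chromatography ran on a Zorbax Extend-C18 column (2.1 × 50 mm, 1.8 μm) at 100 μL/min with water and acetonitrile, each containing 0.1% formic acid, and dead and dwell volumes of 40 μL and 900 μL.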

| SMILES | RP-LC retention time [s] |
| --- | --- |
| CN1C(=O)c2cccnc2Sc2cc(NC(=O)c3ccc(C(F)(F)F)cc3)ccc21 | 910 |
| CN1C(=O)C2(CCN(C(=O)c3cccc(Cl)c3)C2)c2ccccc21 (configuration not stated) | 811 |
| O=C(c1c(OCC2CC2)cc(=O)n2c1CCCCC2)N1CCOCC1 | 645 |
| O=C(CSc1nccn1-c1cccc(Cl)c1)Nc1ccccc1F | 841 |
| Clc1ccc(C(Cn2ccnc2)OCc2csc3c(Cl)cccc23)c(Cl)c1 (configuration not stated) | 974 |
| Cc1ccc(NS(=O)(=O)c2cc(-c3[nH]ncc3C(=O)N(C)C)oc2C)cc1C | 729 |
| CC(=O)N1CCc2cc(N3CC(C(=O)Nc4cc(Cl)ccc4F)CC3=O)ccc21 (configuration not stated) | 768 |
| Cc1ccc2[nH]cc(NC(=O)NCCN(C)C)c(=O)c2c1 | 563 |
| CC1=C(c2ccc(C)c(C)c2)S(=O)(=O)N=C1N1CCC(NC(=O)CCC(C)C)CC1 | 962 |
| O=C(c1ccncc1)N1CCc2c([nH]c3ccccc23)C1c1ccccc1 (configuration not stated) | 862 |
| CCC(C)NC(=O)c1n[nH]c2c1CC(C)CC2 (configuration not stated) | 777 |
| O=C(Cc1ccc2ccccc2c1)Nc1nnc(-c2ccno2)o1 | 558 |
| O=C(O)c1ccc2c(ccn2Cc2ccccc2)c1 | 843 |
| Cc1c(NC(=O)Cc2csc(NC(=O)C(C)(C)C)n2)c(=O)n(-c2ccccc2)n1C | 630 |
| O=C(NC1CC1)c1ccc(N2CCC(NCc3ccc(F)cc3)C2)nc1 (configuration not stated) | 553 |
| CNC(=O)[C@H]1O[C@@H](n2cnc3c(NCc4ccc(N)cc4)ncnc32)C(O)[C@H]1O (some centres not stated) | 569 |
| CN(C)C(=O)c1cc(=O)[nH]c2c(Cl)cccc12 | 604 |
| O=C(NCc1cccs1)c1c(O)c2cccnc2n(-c2cccc(F)c2)c1=O | 1120 |
| COc1ccc(N2CC(NC(=O)C(=O)c3c[nH]c4ccccc34)CC2=O)cc1 (configuration not stated) | 761 |
| O=C(NCc1ccccn1)C(=O)NCC1OCCN1S(=O)(=O)c1cccs1 (configuration not stated) | 563 |
| Cc1sc(NC(=O)c2cccs2)nc1-c1ccc2c(c1)N(C)C(=O)CO2 | 942 |
| O=C(CC1CCCC1)N1CCCC1c1nc(C2CCOCC2)no1 (configuration not stated) | 780 |
| Cc1nc2ccc(Cl)cn2c(=O)c1NC(=O)c1ccc([N+](=O)[O-])cc1Cl | 668 |
| Cc1csc(C(=O)NCCC(O)C(C)(C)C)c1 (configuration not stated) | 718 |
| CS(=O)(=O)N1CCC(C(=O)Nc2ccc(F)cc2F)Oc2ccc(Cl)cc21 (configuration not stated) | 944 |
| CN(C)C(=O)c1ccc2c(c1)nnn2CCNC(=O)Nc1ccc(F)cc1 | 640 |

| SMILES | RP-LC retention time [s] |
| --- | --- |
| Cc1ccc(NC(=O)Cn2c(=O)n(-c3ccc(F)cc3)c(=O)c3c2cc(C)n3C)cc1C | 888 |
| CCS(=O)(=O)N1CCCc2cc(C(=O)NC(C)C)ccc21 | 746 |
| Cc1csc(-c2csc(S(=O)(=O)N3CCCCCC3)c2)n1 | 1090 |
| Cc1ccc(NS(=O)(=O)c2ccc(-c3c(C)noc3C)cc2)cc1 | 928 |
| COc1cccc(CNc2c(-c3nc(C(C)C)no3)cnc3nc(C)ccc23)c1 | 790 |
| CC(=O)Nc1ccc(OCC(=O)O)nc1 | 574 |
| CCOC1CCOC2(CCN(C(=O)c3ccoc3)CC2)C1 (configuration not stated) | 686 |
| O=C(C1=CN(c2ccc(Br)cc2)c2cc(F)ccc2S1(=O)=O)N1CCOCC1 | 826 |
| CC(Cc1ccco1)NC(=O)c1cc(S(=O)(=O)N2CCCCC2)ccc1Cl (configuration not stated) | 967 |
| CCn1nnc2ccc(-c3noc(C(C)NC(=O)c4ccccc4)n3)cc21 (configuration not stated) | 689 |
| CCOc1ccc(-c2cc3c(=O)n(Cc4nc(-c5ccc(C)cc5)no4)ccn3n2)cc1 | 1160 |
| CCc1nc(N)n(CC(=O)Nc2cccc(C)c2C)c(=O)c1C | 638 |
| CCN(CC)C(=O)c1ccc2c(c1)CCCN2S(C)(=O)=O | 748 |
| Cc1cc(C)nc(Nc2nc(CC(=O)NCCc3ccc(S(N)(=O)=O)cc3)cs2)n1 | 604 |
| O=c1c2nc(-c3cccc(Cl)c3)cn2ccn1-c1ccc(F)cc1 | 864 |
| Cc1cc(S(=O)(=O)N(C)CC2CCOC2)ccc1F (configuration not stated) | 836 |
| COc1cc(NC(=O)CN2CCSc3ccccc32)cc(OC)c1OC | 890 |
| OC[C@@H]1CNC[C@H]1C1CCN(Cc2ccc(OC(F)(F)F)cc2)CC1 | 591 |
| COc1cccc(NC(=O)c2cc(C(C)C)n3nccc3n2)c1 | 1070 |
| CCOC(=O)c1sc(NC(=O)COc2ccc(Cl)cc2)nc1C | 970 |
| NC(=O)CSc1ccc(-c2ccccn2)nn1 | 554 |
| CCC(=O)Nc1cc2c(cc1N1CCC(C)CC1)n(C)c(=O)c(=O)n2C | 773 |
| Cc1sc2ncn(CC(=O)NCCCC(=O)N3CCCC(C)C3)c(=O)c2c1C (configuration not stated) | 721 |
| Cc1oc(C(C)C)nc1C(=O)NC(C)c1ccccn1 (configuration not stated) | 610 |
| CN(C)c1cc(-n2cccn2)ncn1 | 666 |
| CC1(C(=O)NCc2ccccc2)CCCN(S(=O)(=O)c2ccccc2)C1 (configuration not stated) | 883 |

Other lines, results leading:

| RP-LC retention time [s] | SMILES |
| --- | --- |
| 575 | O=C(NCCCn1cccn1)C1CCc2nc(N3CCCC3)ncc2C1 (configuration not stated) |
| 709 | CCC1CN(C(=O)N2CCC(C(=O)NCCCN3CCCC3=O)CC2)c2ccccc2O1 (configuration not stated) |
| 817 | Cc1nc([N+](=O)[O-])c(N2CCCC2)n1Cc1ccccc1 |
| 737 | O=C(NCCC1=CCCCC1)C1CCN(c2cnc3nccnc3c2)CC1 |
| 831 | CCc1cc(=O)n(CC(=O)Nc2cccc(Br)c2)c(N2CCOCC2)n1 |
| 766 | Cc1nc(-c2cccnc2)nc2c1CCC(=O)N2Cc1ccccc1 |
| 584 | Cc1nn2c(CNC(=O)C3CCN(C(=O)c4ccccc4)CC3)c(C)nc2s1 |
| 980 | CCOc1ccc(NS(=O)(=O)c2cc(C(=O)N3CCN(c4cccc(Cl)c4)CC3)n[nH]2)cc1 |
| 660 | Cc1cc(C)cc(NC(=O)NCc2ccnc(N3CCSCC3)c2)c1 |
| 646 | COc1cc(NC(=O)COc2ccc(-c3nnc4n3CCCC4)cc2)cc(OC)c1OC |
| 921 | CC(C)c1ccc(OCC(=O)Nc2cc3c(cc2N2CCOCC2)n(C)c(=O)c(=O)n3C)cc1 |
| 840 | COc1ccccc1NC(=O)N1CCC2(CC1)N=C(c1cccc(F)c1)C(=O)N2 |
| 1010 | Cc1nc(OCC(=O)NC2CCCCC2)c2c(-c3ccccc3)noc2n1 |
| 1050 | Cc1cc(NC(=O)NC2CCN(c3nc4ccccc4n(C)c3=O)CC2)ccc1Br |
| 678 | N#Cc1ccc(CN2CC(n3cc(COc4ccc(F)cc4)nn3)C2)cc1 |
| 619 | CCOC(=O)N1CCN(C(=O)c2cccc(-n3cnnn3)c2)CC1 |
| 844 | O=C1COc2cc(S(=O)(=O)N3CCC(C(=O)N4CCc5ccccc54)CC3)c(Cl)cc2N1 |
| 654 | CCn1cc(CCNC(=O)C2CCCC2)c2cccnc21 |
| 1110 | Cc1cccc(N2CCN(C(=O)Cn3ccc4ccc(N5CCOCC5)nc43)CC2)c1C |
| 577 | CC(C)Cn1c(=O)c(N2CCN(C(=O)Nc3ccccc3)CC2)nc2ccncc21 |

| RP-LC retention time [s] | SMILES |
| --- | --- |
| 596 | CC(C)N1CCN(C(=O)c2cn(-c3cc(N4CCSCC4)ncn3)cn2)CC1 |
| 948 | CCc1ccc(S(=O)(=O)N2c3ccccc3CC2c2nnc(C3CCOCC3)o2)cc1 (configuration not stated) |
| 928 | CCc1ccccc1NC(=O)Cc1csc2nc(-c3ccc(C)c(C)c3)cn12 |
| 800 | O=C(Nc1cccc(F)c1)C1CCc2nc(N3CCCCC3)ncc2C1 (configuration not stated) |
| 869 | Cc1ccc(NC(=O)N2CCC(C(C)C(=O)Nc3ccccc3F)CC2)cc1 (configuration not stated) |
| 845 | Clc1nnc(N2CCSCC2)c2ccccc12 |
| 716 | CCCn1ncc(N2CCC(C(=O)NC(C)c3cccs3)CC2)cc1=O (configuration not stated) |
| 944 | CCC(C)CC(=O)N1CCCN(C2=NS(=O)(=O)C(c3ccc(Cl)cc3)=C2C)CC1 (configuration not stated) |
| 732 | OC(CN1CCNCC1)Cn1c2ccc(Br)cc2c2cc(Br)ccc21 (configuration not stated) |
| 1120 | O=S(=O)(c1ccc(-c2cnc(C3CCCC3)o2)s1)N1CCN(c2ncccn2)CC1 |
| 797 | Cc1ccc(C(=O)NC2CCN(c3ccccc3)C2=O)c(C)c1 (configuration not stated) |
| 565 | CCCN1CCN(c2ncc3c(n2)CCN(Cc2ccccc2OCC)C3)CC1 |
| 785 | COc1ccc(NC(=O)N2CCC3(C2)C(=O)N(C)c2ccccc23)cc1F (configuration not stated) |
| 562 | CCN(CC)CCNCc1ccc(-c2ccccc2F)o1 |
| 797 | CCC(CC)C(=O)N1CCc2[nH]nc(C(=O)NCCCc3ccccc3)c2C1 |
| 667 | CC(C)c1nnc2n1CCN(C(=O)COc1cccc(Cl)c1)C2 |
| 680 | C=CCN1CCN(C(=O)c2cn(-c3ccc(-c4nc(C(C)(C)C)no4)cn3)cn2)CC1 |
| 620 | CCNc1cc(N2CCC(CCC(=O)NC3CCN(C(=O)OCC)CC3)CC2)ncn1 |
| 590 | CCN1CCN(c2cc(C)c3cc(NC(=S)NCc4ccc5c(c4)OCO5)ccc3n2)CC1 |
| 620 | CN1CCC(OC2CCN(S(=O)(=O)c3ccccc3F)CC2)CC1 |
